# In the supplement of paper PMC11451515:
# Tested on: P12-Ichikawa
# Test: cell viability relative to DMSO control; higher = less cytotoxic
# Conditions: 48 h
# Summary of the method: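 Viability is expressed as a percentage of DMSO wells within each plate, and cell-free wells serve as background. Seeding densities in the 1536-well plates (5 μl) were 500 cells/well for NOMO1 or SEM leukemia cells and 1000 cells/well for P12-Ichikawa. Each line was adapted for at least four passages in each medium. Library compounds in DMSO were pin-dosed at 47 μM to 0.79 nM (11 points, threefold), and CellTiter-Glo One luminescence was read after 48 h at 37°C.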
# [1] = HPLM + 10% dialyzed FBS, 0.000781 µM
# [2] = HPLM + 10% dialyzed FBS, 0.00234 µM
# [3] = HPLM + 10% dialyzed FBS, 0.00702 µM
# [4] = HPLM + 10% dialyzed FBS, 0.0211 µM
# [5] = HPLM + 10% dialyzed FBS, 0.0632 µM
# [6] = HPLM + 10% dialyzed FBS, 0.19 µM
# [7] = HPLM + 10% dialyzed FBS, 0.569 µM
# [8] = HPLM + 10% dialyzed FBS, 1.71 µM
# [9] = HPLM + 10% dialyzed FBS, 5.12 µM
# [10] = HPLM + 10% dialyzed FBS, 15.4 µM
# [11] = HPLM + 10% dialyzed FBS, 46.1 µM
# [12] = RPMI 5 mM glucose + 10% FBS, 0.000781 µM
# [13] = RPMI 5 mM glucose + 10% FBS, 0.00234 µM
# [14] = RPMI 5 mM glucose + 10% FBS, 0.00702 µM
# [15] = RPMI 5 mM glucose + 10% FBS, 0.0211 µM
# [16] = RPMI 5 mM glucose + 10% FBS, 0.0632 µM
# [17] = RPMI 5 mM glucose + 10% FBS, 0.19 µM
# [18] = RPMI 5 mM glucose + 10% FBS, 0.569 µM
# [19] = RPMI 5 mM glucose + 10% FBS, 1.71 µM
# [20] = RPMI 5 mM glucose + 10% FBS, 5.12 µM
# [21] = RPMI 5 mM glucose + 10% FBS, 15.4 µM
# [22] = RPMI 5 mM glucose + 10% FBS, 46.1 µM
# [23] = RPMI 5 mM glucose + 10% dialyzed FBS, 0.000781 µM
# [24] = RPMI 5 mM glucose + 10% dialyzed FBS, 0.00234 µM
# [25] = RPMI 5 mM glucose + 10% dialyzed FBS, 0.00702 µM
# [26] = RPMI 5 mM glucose + 10% dialyzed FBS, 0.0211 µM
# [27] = RPMI 5 mM glucose + 10% dialyzed FBS, 0.0632 µM
# [28] = RPMI 5 mM glucose + 10% dialyzed FBS, 0.19 µM
# [29] = RPMI 5 mM glucose + 10% dialyzed FBS, 0.569 µM
# [30] = RPMI 5 mM glucose + 10% dialyzed FBS, 1.71 µM
# [31] = RPMI 5 mM glucose + 10% dialyzed FBS, 5.12 µM
# [32] = RPMI 5 mM glucose + 10% dialyzed FBS, 15.4 µM
# [33] = RPMI 5 mM glucose + 10% dialyzed FBS, 46.1 µM
SMILES,cell viability [1] [%],cell viability [2] [%],cell viability [3] [%],cell viability [4] [%],cell viability [5] [%],cell viability [6] [%],cell viability [7] [%],cell viability [8] [%],cell viability [9] [%],cell viability [10] [%],cell viability [11] [%],cell viability [12] [%],cell viability [13] [%],cell viability [14] [%],cell viability [15] [%],cell viability [16] [%],cell viability [17] [%],cell viability [18] [%],cell viability [19] [%],cell viability [20] [%],cell viability [21] [%],cell viability [22] [%],cell viability [23] [%],cell viability [24] [%],cell viability [25] [%],cell viability [26] [%],cell viability [27] [%],cell viability [28] [%],cell viability [29] [%],cell viability [30] [%],cell viability [31] [%],cell viability [32] [%],cell viability [33] [%]
c1cc(OCCN2CCCCC2)cc(-c2n[nH]c3ccc(-c4nc[nH]n4)cc23)c1,109,114,110,116,117,118,121,116,122,123,124,112,111,118,116,123,114,114,132,128,128,111,99.4,111,114,19.2,117,116,121,115,108,123,116
Cl.Cl.Fc1ccc(C(OCCN2CCN(CCCc3ccccc3)CC2)c2ccc(F)cc2)cc1,105,104,109,112,116,109,109,113,120,113,78.4,114,133,118,123,136,126,126,124,122,124,73.9,115,121,119,117,127,121,122,115,120,120,62.8
Cn1cc(-c2ccc3ncc(Cc4ccc5ncccc5c4)n3n2)cn1,96.8,105,107,107,105,104,113,107,105,107,100,102,108,100,103,102,109,111,107,106,104,102,103,119,112,109,110,104,115,114,102,98.7,110
Cc1c(OCC(F)(F)F)ccnc1C[S+]([O-])c1nc2ccccc2[nH]1 (stereo unspecified),99.9,111,109,105,108,113,113,112,118,112,107,99,100,98.2,94,106,115,108,112,114,101,102,102,102,102,111,104,103,110,112,108,111,96.2
NC\1=N\C(=O)N(\C=N1)[C@H]2C[C@H](O)[C@@H](CO)O2,101,103,106,108,115,108,101,74.1,42,34.9,32.3,105,110,112,118,106,103,97.2,70,37.6,26.5,27.5,107,109,103,106,105,107,102,72.5,37.2,30.3,31.4
CN(C)CCC=C1C2=C(C=CC=C2)\C=C/C3=C1C=CC=C3,109,118,114,117,120,123,106,105,96.9,105,87.1,,,,,,,,,,,,115,109,105,115,119,107,111,102,106,105,84.1
CCOc1ccccc1OCCNC(C)Cc1ccc(OC)c([S+](N)(=O)[O-])c1 (stereo unspecified),88.4,104,113,109,103,111,114,105,104,108,107,104,111,111,110,114,106,114,114,117,117,114,82.8,103,101,104,103,95.8,103,112,110,109,102
Cc1ccccc1C(C(=O)NC1CCCCC1)N(C(=O)CNc1ccc(C#N)cc1)c1cccc(F)c1 (stereo unspecified),111,113,107,105,114,103,106,104,102,104,99.2,73.9,104,110,112,112,102,102,102,99,95.6,94.6,64.4,110,110,112,104,92.7,103,92.5,91.3,98.8,98.6
COc1cc2ncnc(Nc3ccc(F)c(Cl)c3)c2cc1OCCCN1CCOCC1,115,114,120,115,112,113,117,111,100,95.4,4.05,122,113,109,109,112,109,114,106,104,111,93.7,111,116,116,115,113,109,111,112,106,101,86.6
CC(C)(O)CNc1nc(Nc2ccnc(C(F)(F)F)c2)nc(-c2cccc(C(F)(F)F)n2)n1,101,103,107,107,106,102,99.4,104,8.99,10.4,15.2,103,115,100,114,104,118,111,107,10.2,10.7,13.2,99.6,106,115,117,123,109,117,118,17.5,21.5,26.8
O=C1c2cccc(O)c2C(=O)c2c(O)cc(CO)cc21,97.1,100,99.9,98.1,92.7,91.2,95.2,92.8,91.9,90.7,93.4,89.6,90.1,93.7,98,92.3,97,88.2,97.1,92.1,96.5,104,91.1,92.2,91,93.4,91.8,91.5,89,86.7,88,88.3,91.3
O=C(NC1CC1)c1cccc(-c2ccc3c(NC(=O)C4CC4)n[nH]c3c2)c1,109,109,108,113,114,113,112,112,95.2,39.5,13.1,111,114,113,127,121,124,110,113,101,43.5,12.6,110,120,118,121,118,116,114,112,102,55.3,24.5
c1cc(-c2sc(-c3ccncc3)c(-c3ccncc3)c2-c2ccncc2)ccn1,101,109,108,115,121,123,118,107,110,112,106,97.9,114,102,113,121,123,121,126,110,112,104,97.3,111,109,117,115,120,124,118,111,113,98.9
Nc1ccc([S+](=O)([O-])Nc2ccccn2)cc1,117,116,115,123,117,117,130,119,115,120,125,105,105,113,117,118,112,121,116,127,123,127,113,117,116,113,119,115,125,119,124,131,127
